Results taken from the supplement of paper PMC10307832.

Experiments:
Experiment in all cases: relative viability (nuclei count vs DMSO), 5 days (fraction); higher = more cells survive
Everolimus = compound: CO[C@H]1C[C@@H]2CC[C@@H](C)[C@@](O)(O2)C(=O)C(=O)N2CCCC[C@H]2C(=O)O[C@H]([C@H](C)C[C@@H]2CC[C@@H](OCCO)[C@H](OC)C2)CC(=O)[C@H](C)/C=C(\C)[C@@H](O)[C@@H](OC)C(=O)[C@H](C)C[C@H](C)/C=C/C=C/C=C/1C [Everolimus]
Method in brief: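 After an overnight hold at 37 °C, lung cancer cell lines in 1536-well plates were pinned with five library-drug doses (not always all listed), each √10 from the next, on vehicle-anchored plates. The cells stayed 5 days without fresh medium, then a one-step fix, permeabilisation and Hoechst stain preceded 4× imaging and MetaXpress nuclear counts. A plate passed only with control CV under 25% and at least one doubling. Viability is the median, over plates, of treated-well nuclei relative to vehicle-well nuclei.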

Everolimus + Foretinib = compound: CO[C@H]1C[C@@H]2CC[C@@H](C)[C@@](O)(O2)C(=O)C(=O)N2CCCC[C@H]2C(=O)O[C@H]([C@H](C)C[C@@H]2CC[C@@H](OCCO)[C@H](OC)C2)CC(=O)[C@H](C)/C=C(\C)[C@@H](O)[C@@H](OC)C(=O)[C@H](C)C[C@H](C)/C=C/C=C/C=C/1C [Everolimus] + COc1cc2c(Oc3ccc(NC(=O)C4(C(=O)Nc5ccc(F)cc5)CC4)cc3F)ccnc2cc1OCCCN1CCOCC1 [Foretinib] (partner 0.25 µM)
Method in brief: (§1)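 For relative viability, nuclei counts in treated wells were divided by those in vehicle wells. Lung cancer cell lines had been pin-tool dosed in 1536-well plates the day after seeding and cultured for 5 days, then fixed and stained in one step (final 0.05% Triton X-100, 1% formaldehyde, 1 ug/ml Hoechst) and imaged at 4×. Doses were one drug alone or a fixed anchor-drug dose plus five library-drug doses (not always all listed) in √10 steps, and values are duplicate-plate medians.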

Everolimus + OSI-027 = compound: CO[C@H]1C[C@@H]2CC[C@@H](C)[C@@](O)(O2)C(=O)C(=O)N2CCCC[C@H]2C(=O)O[C@H]([C@H](C)C[C@@H]2CC[C@@H](OCCO)[C@H](OC)C2)CC(=O)[C@H](C)/C=C(\C)[C@@H](O)[C@@H](OC)C(=O)[C@H](C)C[C@H](C)/C=C/C=C/C=C/1C [Everolimus] + COc1cccc2cc(-c3nc([C@H]4CC[C@H](C(=O)O)CC4)n4ncnc(N)c34)[nH]c12 [OSI-027] (partner 0.5 µM)
Method in brief: as §1

Everolimus + Palbociclib = compound: CO[C@H]1C[C@@H]2CC[C@@H](C)[C@@](O)(O2)C(=O)C(=O)N2CCCC[C@H]2C(=O)O[C@H]([C@H](C)C[C@@H]2CC[C@@H](OCCO)[C@H](OC)C2)CC(=O)[C@H](C)/C=C(\C)[C@@H](O)[C@@H](OC)C(=O)[C@H](C)C[C@H](C)/C=C/C=C/C=C/1C [Everolimus] + CC(=O)c1c(C)c2cnc(Nc3ccc(N4CCNCC4)cn3)nc2n(C2CCCC2)c1=O [Palbociclib] (partner 0.5 µM)
Method in brief: as §1

Cell Line	relative viability (Everolimus; 0.01 µM)	relative viability (Everolimus; 0.03162 µM)	relative viability (Everolimus; 0.1 µM)	relative viability (Everolimus; 0.3162 µM)	relative viability (Everolimus; 1 µM)	relative viability (Everolimus + Foretinib; first compound 0.01 µM)	relative viability (Everolimus + Foretinib; first compound 0.03162 µM)	relative viability (Everolimus + Foretinib; first compound 0.1 µM)	relative viability (Everolimus + Foretinib; first compound 0.3162 µM)	relative viability (Everolimus + Foretinib; first compound 1 µM)	relative viability (Everolimus + OSI-027; first compound 0.01 µM)	relative viability (Everolimus + OSI-027; first compound 0.03162 µM)	relative viability (Everolimus + OSI-027; first compound 0.1 µM)	relative viability (Everolimus + OSI-027; first compound 0.3162 µM)	relative viability (Everolimus + OSI-027; first compound 1 µM)	relative viability (Everolimus + Palbociclib; first compound 0.01 µM)	relative viability (Everolimus + Palbociclib; first compound 0.03162 µM)	relative viability (Everolimus + Palbociclib; first compound 0.1 µM)	relative viability (Everolimus + Palbociclib; first compound 0.3162 µM)	relative viability (Everolimus + Palbociclib; first compound 1 µM)
HCC-15	0.964	0.994	0.922	0.98	0.958	1.15	1.03	1.01	0.964	0.985	0.502	0.517	0.447	0.543	0.546	0.73	0.79	0.627	0.697	0.76
HCC-44	1	0.974	0.985	0.969	0.957						0.382	0.438	0.434	0.384	0.548	1.01	1	0.997	1.07	1.1
HCC-78	0.905	0.919	0.659	0.858	0.644	0.496	0.477	0.447	0.51	0.391	0.348	0.332	0.572	0.311	0.347	0.477	0.489	0.513	0.485	0.379
HCC-366	0.955	0.961	0.935	0.929	0.972	0.794	0.888	0.873	0.866	0.869	0.755	0.614	0.49	0.727	0.5	0.337	0.156	0.216	0.207	0.106
HCC-827	1.1	1.09	1.01	1.03	1.05	0.929	0.982	0.906	0.828	0.771	0.624	0.613	0.596	0.482	0.47	0.459	0.409	0.331	0.479	0.277
HOP-62	0.901	0.856	0.767	0.777	0.794	0.903	0.835	0.776	0.731	0.779	0.548	0.511	0.448	0.517	0.503	0.418	0.304	0.268	0.294	0.268
IA-LM	0.601	0.396	0.378	0.374	0.406	0.927	0.547	0.476	0.595	0.42										
LC-2-ad	0.932	1.03	0.89	0.958	0.9	0.741	0.659	0.703	0.674	0.693	0.669	0.7	0.602	0.618	0.569	0.543	0.572	0.564	0.561	0.475
LCLC-97TM1	0.771	0.82	0.709	0.892	0.775	0.833	0.562	0.915	0.904	0.862	0.455	0.362	0.36	0.337	0.458	0.225	0.217	0.159	0.164	0.173
LCLC-103H	0.977	0.969	0.834	0.922	0.871	0.597	0.572	0.522	0.545	0.574	0.347	0.385	0.402	0.367	0.366	0.511	0.49	0.465	0.453	0.546
NCI-H522	0.722	0.655	0.601	0.731	0.813						0.658	0.501	0.617	0.621	0.591	0.793	0.701	0.62	0.603	0.597
NCI-H596	0.699	0.628	0.54	0.697	0.588	0.435	0.494	0.512	0.442	0.477	0.506	0.471	0.417	0.45	0.457					
NCI-H1299	0.969	0.98	1.01	0.974	1.04	1.06	1.21	0.634	1.07	1.05										
NCI-H1563	0.767	0.761	0.715	0.728	0.676	0.721	0.768	0.685	0.712	0.562	0.628	0.645	0.622	0.693	0.643					
NCI-H1648	0.646	0.778	0.718	0.596	0.654						0.247	0.252	0.268	0.281	0.257	0.257	0.21	0.259	0.22	0.222
NCI-H1703	0.455	0.373	0.456	0.529	0.63	0.347	0.406	0.361	0.338	0.328										
NCI-H1792	0.478	0.336	0.363	0.349	0.379						0.646	0.489	0.427	0.421	0.362	0.776	0.518	0.448	0.464	0.376
